Experimental data as given in PubChem BioAssay AID652144 (Broad Institute, 2013).
Inconclusive results are not listed. Activity calls are given as the source filed them. How the calls were made is not given here.

Legend:
Test in all cases: viability reduction measured by resazurin – cell-based, Alamar Blue fluorescence, multiple timepoints, mechanism study for HRAS target identification project, profiling panel (AID 652144)
Settings in all cases: Cancer/normal cell panel viability, 8-48 h
C2C12 = tested on: C2C12
SNB-75 = tested on: SNB-75
HT-29 = tested on: HT-29
LOX-IMVI = tested on: LOX-IMVI
U-251 = tested on: U-251
SR = tested on: SR
HeLA = tested on: HeLA
CCRF-CEM = tested on: CCRF-CEM
HUVEC = tested on: HUVEC
SNB-19 = tested on: SNB-19

Structure (SMILES)	AC50 (C2C12) [nM]	AC50 (SNB-75) [nM]	AC50 (HT-29)	AC50 (LOX-IMVI) [nM]	AC50 (U-251)	AC50 (SR) [nM]	AC50 (HeLA)	AC50 (CCRF-CEM) [nM]	outcome (C2C12)	outcome (SNB-75)	outcome (HUVEC)	outcome (HT-29)	outcome (LOX-IMVI)	outcome (SNB-19)	outcome (U-251)	outcome (SR)	outcome (HeLA)	outcome (CCRF-CEM)	AC50 (HUVEC) [nM]	AC50 (SNB-19) [nM]
COC(=O)c1ccc([C@@H]2c3[nH]c4ccccc4c3C[C@@H](C(=O)OC)N2C(=O)CCl)cc1	101	355	177 nM	31	1060 nM	32.9	573 nM	50.2	–	–	–	–	–	–	–	–	–	–	–	–
Cc1onc(C(=O)N2CCN(C(c3ccncc3)c3ccncc3)CC2)c1[N+](=O)[O-]	–	–	–	–	–	–	–	–	inactive	inactive	inactive	inactive	inactive	inactive	inactive	inactive	inactive	inactive	–	–
COc1ccc(N(C(=O)CCl)C(C(=O)NCCc2ccccc2)c2cccs2)cc1Cl (centres undefined)	842	286	162 nM	40.5	896 nM	61.8	547 nM	78.5	–	–	–	–	–	–	–	–	–	–	8940	1170
C#CCCCC(=O)NCCOCCOCCOc1ccc(N(C(=O)CCl)C(C(=O)NCCc2ccccc2)c2cccs2)cc1Cl (centres undefined)	5420	3560	2860 nM	421	6810 nM	885	4490 nM	997	–	–	–	–	–	–	–	–	–	–	–	4450
CC(C)(C)OC(=O)NCCOCCOCCOc1ccc(N(C(=O)CCl)C(C(=O)NCCc2ccccc2)c2cccs2)cc1Cl (centres undefined)	442	686	457 nM	83.4	1350 nM	95.1	650 nM	86.5	–	–	–	–	–	–	–	–	–	–	13700	1720
Cc1onc(C(=O)N2CCN(C(c3ccc(Cl)cc3)c3ccc(Cl)cc3)CC2)c1[N+](=O)[O-]	–	687	963 nM	103	> 70000 nM (inactive)	142	–	144	–	–	inactive	–	–	–	–	–	–	–	–	–
CCC(=O)N(c1ccc(OC)c(Cl)c1)C(C(=O)NCCc1ccccc1)c1cccs1 (centres undefined)	–	–	> 70000 nM (inactive)	–	–	–	> 70000 nM (inactive)	–	–	–	–	–	inactive	inactive	inactive	–	–	–	–	–
